Experimental data: patent US20260137774A1, “Hepatitis B Virus Receptor OATP and Use Thereof” (priority 2022, published 2026)

Assays:
HepG2 cells = test: Drug susceptibility test of selection antibiotics on HepG2 cells; type: cell-based
Hela cells = test: Drug susceptibility test of selection antibiotics on HeLa cells; type: cell-based
human OATP1B3 (hOATP1B3) = target: T1, human OATP1B3 (hOATP1B3) (Homo sapiens, UniProt Q9NPD5); details: pH 7.4
T1 sequence (Q9NPD5 1-702): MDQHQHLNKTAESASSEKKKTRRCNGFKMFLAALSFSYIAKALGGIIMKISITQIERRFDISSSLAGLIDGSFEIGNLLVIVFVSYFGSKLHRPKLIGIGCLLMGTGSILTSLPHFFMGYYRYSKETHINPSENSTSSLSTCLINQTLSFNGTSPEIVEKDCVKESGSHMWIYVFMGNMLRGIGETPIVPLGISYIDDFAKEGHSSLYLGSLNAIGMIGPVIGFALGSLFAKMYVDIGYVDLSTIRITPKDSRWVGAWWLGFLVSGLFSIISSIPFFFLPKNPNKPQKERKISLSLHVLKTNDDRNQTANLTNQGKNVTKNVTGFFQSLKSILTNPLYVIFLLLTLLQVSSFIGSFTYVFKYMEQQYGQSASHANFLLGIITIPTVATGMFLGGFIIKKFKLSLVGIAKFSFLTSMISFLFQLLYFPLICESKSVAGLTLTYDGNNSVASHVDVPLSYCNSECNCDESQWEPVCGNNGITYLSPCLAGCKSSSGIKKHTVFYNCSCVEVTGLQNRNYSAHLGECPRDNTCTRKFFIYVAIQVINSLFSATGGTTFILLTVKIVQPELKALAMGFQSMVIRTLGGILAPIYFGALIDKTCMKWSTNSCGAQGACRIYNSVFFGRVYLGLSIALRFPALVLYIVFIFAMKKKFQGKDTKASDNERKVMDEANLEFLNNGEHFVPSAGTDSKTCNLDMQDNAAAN
Description: (§1) Cells for experiments were cultured in DMEM medium at 37° C. and 5% C02. Among them, DMEM medium contains 10% fetal calf serum, penicillin-streptomycin solution (100 U/mL and 0.1 mg/mL) and 0.5 mg/mL geneticin. Before the transfer experiment, cells were seeded in a 24-well plate at a density of 4×10^5 cells/well. The transfer experiment can be performed when the cell confluence reaches 80-90%.
(§2) The concentrations of substrates and positive inhibitors for each transporter are as follows.
(§3) Preparation of working solution: Use PBS to prepare a test substance stock solution with a concentration of 6 mM, and then dilute it with PBS in a gradient to 2000 μM, 1000 μM, 200 μM, 100 μM and 20 μM concentration working solution, and dilute the above working solutions of different concentrations to 20 μM, 10 μM, 2 μM, 1 μM and 0.2 μM concentration dosing solutions (Dosing Solution) respectively, so that the final concentrations of the test substance in the test system are 10 μM, 5 μM and 5 μM respectively. μM, 1 μM, 0.5 μM and 0.1 μM.
(§4) Pre-incubation of OATP1B1 and OATP1B3: Aspirate the culture medium from the culture plate, and wash the cells twice with 37° C. pre-warmed TB buffer (pH7.4), 0.5 mL each time. […] Among them, the NC group includes MOCK cells and each transporter cell, and the MOCK cell group is used to calculate the uptake ratio and passive transport amount. […]

human OATP1B1 (hOATP1B1) = target: T2, human OATP1B1 (hOATP1B1) (Homo sapiens, UniProt Q9Y6L6); details: pH 7.4
T2 sequence (Q9Y6L6 1-691): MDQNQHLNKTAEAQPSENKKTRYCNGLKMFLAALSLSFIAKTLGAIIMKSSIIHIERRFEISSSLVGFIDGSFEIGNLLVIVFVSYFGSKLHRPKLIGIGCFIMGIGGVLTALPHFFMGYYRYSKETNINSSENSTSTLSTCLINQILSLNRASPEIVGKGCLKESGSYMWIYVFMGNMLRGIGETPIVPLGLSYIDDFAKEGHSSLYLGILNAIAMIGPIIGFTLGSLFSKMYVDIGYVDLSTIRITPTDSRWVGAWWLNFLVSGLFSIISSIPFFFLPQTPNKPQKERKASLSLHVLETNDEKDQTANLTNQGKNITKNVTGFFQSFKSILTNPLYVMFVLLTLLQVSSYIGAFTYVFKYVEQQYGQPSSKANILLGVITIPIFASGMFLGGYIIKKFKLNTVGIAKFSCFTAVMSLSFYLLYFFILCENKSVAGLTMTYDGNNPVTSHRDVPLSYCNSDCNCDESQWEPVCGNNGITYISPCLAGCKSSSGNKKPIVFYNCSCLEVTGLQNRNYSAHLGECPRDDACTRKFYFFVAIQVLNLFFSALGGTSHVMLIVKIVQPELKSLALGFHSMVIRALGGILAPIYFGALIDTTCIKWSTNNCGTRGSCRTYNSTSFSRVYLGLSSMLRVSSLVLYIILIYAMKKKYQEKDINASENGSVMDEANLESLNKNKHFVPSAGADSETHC
Description: as §1, §2, §3, §4

CN(CC[C@H](N)CC(=O)N[C@H]1C=C[C@H](n2ccc(N)nc2=O)O[C@@H]1C(=O)O)C(=N)N [BSD, Blasticidin]
concentration that could kill all cultured cells (HepG2 cells): 2 µg/mL

COc1ccc(C[C@H](N)C(=O)N[C@H]2[C@@H](O)[C@H](n3cnc4c(N(C)C)ncnc43)O[C@@H]2CO)cc1 [puromycin]
concentration that could kill all cultured cells (HepG2 cells): 1 µg/mL | concentration that could kill all cultured cells (Hela cells): 1 µg/mL

CCCCC(=O)N(Cc1ccc(-c2ccccc2-c2nnn[nH]2)cc1)[C@H](C(=O)O)C(C)C [valsartan]
uptake ratio of drug substrate (human OATP1B3 (hOATP1B3)): 6.90 | uptake ratio of drug substrate (human OATP1B1 (hOATP1B1)): 3.25
